Assay in all cases: Fluorescence titration of NMPP binding (quenching of intrinsic protein fluorescence)
What all share (settings): 10 mM Tris-acetate pH 8, 0.05% Tween-80, read-out: dissociation constant (Kd) of NMPP

Assay [1] has as its target T1, wild-type, murine ferrochelatase (Mus musculus, UniProt P22315).
T1 construct: In wild-type, murine, mature ferrochelatase, five tryptophan residues; penta-histidine tag (N); made in house; host or cells: E. coli BL21(DE3)
T1 sequence (P22315 54-422): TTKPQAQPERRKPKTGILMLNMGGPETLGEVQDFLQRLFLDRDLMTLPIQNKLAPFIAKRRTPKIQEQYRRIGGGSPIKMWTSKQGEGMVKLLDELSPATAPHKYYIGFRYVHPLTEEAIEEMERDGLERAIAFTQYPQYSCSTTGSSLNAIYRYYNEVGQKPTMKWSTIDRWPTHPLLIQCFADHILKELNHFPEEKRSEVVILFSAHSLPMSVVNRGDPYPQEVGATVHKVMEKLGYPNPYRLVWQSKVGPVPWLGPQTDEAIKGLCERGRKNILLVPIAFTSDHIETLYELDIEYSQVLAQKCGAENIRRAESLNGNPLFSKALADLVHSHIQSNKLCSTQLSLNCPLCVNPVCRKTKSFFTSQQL
The method, then: (§1) Aliquots of NMPP were added to a solution of enzyme in 10 mM Tris-acetate, pH 8 containing 0.05% Tween-80 and incubated on ice for 1 hr. The intrinsic protein fluorescence was monitored at 331 nm (λex=283 nm). The Kd value for NMPP was determined by fitting the data to Equation 3. The enzymes used in each set were: A. wild-type ferrochelatase (40 nM); B. P255R (250 nM); C. P255G (120 nM).
(§2) The equilibrium constant for NMPP binding to ferrochelatase could be determined from the change in intrinsic protein fluorescence upon ligand addition. […]
(§3) Fluorescence Titration Measurements. Equilibrium fluorescence measurements were made using a Shimadzu RF-5301PC fluorimeter at 23° C. with excitation and emission wavelengths at 283 nm and 331 nm, respectively. The decrease in protein fluorescence, due to NMPP binding, was monitored. […] In a typical titration experiment, aliquots of the NMPP stock were added to the protein solution and, upon incubation on ice for 1 h, the quenching in fluorescence was monitored as described above. […] The observed fluorescence intensity was plotted against NMPP concentration and the dissociation constant of NMPP for ferrochelatase was determined using the least-squares fit of each data set to equation 3 by nonlinear regression: […]

Assay [2] deals with T2, ferrochelatase variant P255G (Mus musculus, UniProt P22315, P308G).
T2 construct: In wild-type, murine, mature ferrochelatase, five tryptophan residues; penta-histidine tag (N); made in house; host or cells: E. coli BL21(DE3)
T2 sequence (P22315 54-422 P308G): T1 sequence (P22315 54-422) with P255G
The arrangement: species or system murine. As for the experimental part:
as §1, §2, §3

Assay [3] has as its target T3, ferrochelatase variant P255R (Mus musculus, UniProt P22315, P308R).
T3 construct: In wild-type, murine, mature ferrochelatase, five tryptophan residues; penta-histidine tag (N); made in house; host or cells: E. coli BL21(DE3)
T3 sequence (P22315 54-422 P308R): T1 sequence (P22315 54-422) with P255R
Also on record: species or system murine. The method, then:
as §1, §2, §3

This is an account of results in patent US8586530B2, “Modulation of inhibition of ferrochelatase by N-methyl protoporphyrin” (University of South Florida, priority 2006, dated 2013).

Substitutions are numbered along the chain they refer to.

Consider N-methyl protoporphyrin [NMPP], for which the values for the Kd in assay [1], in assay [2] and in assay [3] were 9 ± 5 nM, 300 ± 100 nM and 160 ± 70 nM, respectively.

By Kd is commonly meant the constant that tells how readily two partners part at equilibrium.
